# Test results from patent US20190209506A1, “METHODS OF REDUCING OR PREVENTING OXIDATION OF LDL OR LIPID MEMBRANES IN A SUBJECT IN NEED THEREOF” (Amarin Pharmaceuticals Ireland Limited, priority 2018, published 2019).
# How the values were obtained:
# [1] = Lipid hydroperoxide (LOOH) formation in cholesterol-enriched model membranes under autoxidation (Example 3); format: biochemical; conditions: EPA:lipids 1:30; C/P 0.6:1; autoxidation 37° C., 72 hours
# Method: Levels of lipid hydroperoxides were also measured in cholesterol-enriched membrane prepared in the absence of EPA as a control. […] CHOD-iodide color reagent (stock) was prepared according to a procedure modified from El-Saadani et […], Goher […], Jurgens G. A spectrophotometric assay for lipid peroxides in serum lipoproteins using commercially available reagent. (J. Lipid. […] Membrane samples consisting of DLPC±cholesterol were prepared as follows. Component lipids (in chloroform) were transferred to 13×100 mm test tubes and shell-dried under a steady stream of nitrogen gas while vortex mixing. The lipid was co-dried with EPA. Residual solvent was removed by drying for a minimum of 3 h under vacuum. After desiccation, each membrane sample was resuspended in diffraction buffer (0.5 mM HEPES, 154 mM NaCl, pH 7.3) to yield a final phospholipid concentration of 1.0 mg/mL. Multilamellar vesicles (MLV) were formed by vortex mixing for 3 minutes at ambient temperature. […] Absorbances were measured against a CHOD blank at 365 nm using a Beckman DU-640 spectrophotometer. The CHOD colorimetric assay is based on the oxidation of iodide (I^-) by lipid hydroperoxides (LOOH) and proceeds according to the following reaction scheme: The quantity of triiodide anion (I3^-) liberated in this reaction is directly proportional to the amount of lipid hydroperoxides present in the membrane sample.
# HUVECs = assay: NO release from HUVECs incubated with treated, oxidized sdLDL (Example 12); format: cell-based, human; conditions: sdLDL treated at 10.0 μM
# Method: All samples, with the exception of non-oxidized sdLDL controls, were subjected to copper-induced oxidation for 1 hour. Human umbilical vein endothelial cells (HUVECs) were incubated with the various sdLDL samples, stimulated with calcium, and monitored for nitric oxide (NO) and peroxynitrite (ONOO^−) release using nanosensor technology.
# human sdLDL = assay: Copper-induced sdLDL oxidation with fatty acids, TBARS/MDA (Example 14); format: biochemical; conditions: 1.0 μM
# Method: Venous blood was collected from healthy volunteers into vacutainer tubes. Plasma was separated by centrifugation at 3000 g for 25 min at 4° C. and adjusted to a density of 1.020 g/mL with KBr. sdLDL was isolated from the plasma of healthy volunteers by iodixanol density gradient ultracentrifugation and adjusted to a final apolipoprotein concentration of 2 mg/mL. An aliquot of sdLDL (50 μL) was incubated with either 10 μL vehicle (ethanol) or 10 μL FA (EPA, ETE, AA, EA, DHA, DPA, ALA, LA or SA) treatment stock solution (100 μM) for 30 min at 37° C. Oxidation was initiated with addition of initiator CuSO4 (10.0 μM). At certain time points (0, 40, 60, and 120 minutes), […] were removed from each subfraction and combined with 1.0 mL thiobarbituric acid (0.5%), 10 μL trichloroacetic acid (10%), 10 μL butylated hydroxytoluene (BHT; 35 mM in ethanol), and 10 μL ethylenediaminetetraacetic acid (EDTA; 5 mM). Sample aliquots were incubated at 100° C. for 30 min and then assayed for the formation of thiobarbituric acid reactive substances (TBARS), which have a molar absorptivity (ε) value of 1.56×105 M^−1 cm^−1 at 532 nm and are largely derived from the reaction of thiobarbituric acid with MDA, a reactive aldehyde produced by sdLDL oxidation. Sample TBARS concentrations were determined spectrophotometrically by measuring sample absorbances against a standard curve derived from the hydrolysis of 1,1,3,3-tetramethoxypropane.
# [2] = LOOH formation in membrane vesicles, fatty acid comparison (Example 16); format: biochemical; conditions: 5 μM
# Method: Iodometric approaches were used to measure in vitro LOOH formation in membrane vesicles reconstituted as binary mixtures of cholesterol and dilinoleoyl phosphatidylcholine. Vesicles were prepared at a cholesterol-to-phospholipid mole ratio of 0.6:1 and subjected to autoxidation (e.g., lipid oxidation) at 37° C. Lipid oxidation was stimulated with 0.1 μM copper sulfate for 48 hours. All FAs were delivered at 5 and 10 μM.
smiles,measurement,setting,value
"CC/C=C\C/C=C\C/C=C\C/C=C\C/C=C\CCCC(=O)O [EPA, cis-5,8,11,14,17-eicosapentaenoic acid]",LOOH levels,[1],728 ± 30 µM
same,reduction of LOOH levels compared to untreated controls,[1],greater than 90%
same,increase of NO release compared to non-oxidized sdLDL,HUVECs,23%
same,increase of NO release compared to oxidized LDL,HUVECs,53%
same,inhibition of lipoprotein oxidation versus vehicle,human sdLDL; 40 minutes,70%
same,inhibition of oxidation compared to vehicle,human sdLDL; 60 minutes,44%
same,MDA Equivalents (Mean ± SD),human sdLDL; time point 0 min,0.30 ± 0.04 µM
same,MDA Equivalents (Mean ± SD),human sdLDL; time point 40 min,3.14 ± 0.19 µM
same,MDA Equivalents (Mean ± SD),human sdLDL; time point 60 min,6.42 ± 0.24 µM
same,MDA Equivalents (Mean ± SD),human sdLDL; time point 120 min,12.46 ± 0.75 µM
same,activity of EPA greater than ALA by,[2],213%
same,activity of EPA greater than DHA by,[2],279%
same,activity of EPA greater than DPA by,[2],121%
same,activity of EPA greater than ETE by,[2],174%
same,reduction of LOOH levels compared to the vehicle,"[2]; 0.1 μM copper sulfate, 48 hours",77%
